Assays:
FL5.12/Bcl-2 cells = assay: FL5.12/Bcl-2 cell viability assay under IL-3 withdrawal (CellTitre Glo); format: cell-based, murine; details: Mus musculus, IL-3 withdrawn 48 hrs, then 24 hrs with compound
Summary of the method: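 Viability measured by CellTitre Glo after FL5.12/Bcl-2 murine cells, starved of IL-3 for 48 hrs, were treated with compounds for another 24 hrs. Killing reflects inhibition of Bcl-2 sequestration of Bim and Puma.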

GST-Bcl-2 = GST-Bcl-2 (Homo sapiens, UniProt P10415); assay: TR-FRET binding assay, GST-Bcl-2 with F-Bak peptide probe; details: for Ki: TR-FRET Binding Affinity, GST-Bcl-2, F-Bak peptide probe
Summary of the method: (§1)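 Competitive TR-FRET: GST-fusion protein, fluorescent Bak peptide probe and Tb-labelled anti-GST antibody incubated with compound dilution series (starting 50 μM as 2× stock, 10% DMSO) for 3 h at RT. Excitation 340/35 nm; Ki derived via Wang's exact competitive-binding equation.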

Canine platelets = assay: Platelet cell viability assay (platelet-rich plasma, Cell Titer Glo); format: cell-based; details: Canis lupus familiaris, 5 h, isolated canine platelets ex vivo, five hours at 37° C.
Procedure: After the incubation, platelets were equilibrated to room temperature for 20 minutes and then an equal volume of Cell Titer Glo reagent (Promega Corporation) was added. Samples were mixed for two minutes and then allowed to equilibrate for an additional 10 minutes at room temperature. The luminescence generated from the samples was quantitated using an LJL Analyst plate reader.
The effect of compounds on platelet survival can be directly evaluated ex vivo by examining the viability of isolated canine platelets in the presence of various concentrations of compound.

GST-Bcl-XL = GST-Bcl-XL (Homo sapiens, UniProt Q07817); assay: TR-FRET binding assay, GST-Bcl-XL with F-Bak peptide probe; details: TR-FRET Binding Affinity, GST-Bcl-XL, F-Bak peptide probe
Summary of the method: as §1

GST-Bcl-2, sequence (P10415 whole entry, the tested form may be a part): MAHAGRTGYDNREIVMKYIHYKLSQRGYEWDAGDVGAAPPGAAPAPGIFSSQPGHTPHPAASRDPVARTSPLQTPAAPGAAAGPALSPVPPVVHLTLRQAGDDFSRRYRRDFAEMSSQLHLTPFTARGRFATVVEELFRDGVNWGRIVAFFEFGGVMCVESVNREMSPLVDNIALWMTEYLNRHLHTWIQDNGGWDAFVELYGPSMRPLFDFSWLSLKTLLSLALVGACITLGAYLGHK
GST-Bcl-XL, sequence (Q07817 whole entry): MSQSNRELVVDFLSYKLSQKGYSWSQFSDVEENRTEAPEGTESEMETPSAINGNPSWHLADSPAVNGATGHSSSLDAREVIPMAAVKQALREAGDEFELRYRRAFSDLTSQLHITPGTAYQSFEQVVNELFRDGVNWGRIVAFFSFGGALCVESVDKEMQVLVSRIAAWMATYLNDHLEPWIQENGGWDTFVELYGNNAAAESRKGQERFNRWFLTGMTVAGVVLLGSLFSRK

CC1(C)CCC(CN2CCN(c3ccc(C(=O)NS(=O)(=O)c4ccc(NCCCN5CCCC5)c([N+](=O)[O-])c4)c(Oc4cccc5[nH]ccc45)c3)CC2)=C(c2cccc(C(F)(F)F)c2)C1 [Example 71, 4-[4-({4,4-dimethyl-2-[3-(trifluoromethyl)phenyl]cyclohex-1-en-1-yl}methyl)piperazin-1-yl]-2-(1H-indol-4-yloxy)-N-({3-nitro-4-[(3-pyrrolidin-1-ylpropyl)amino]phenyl}sulfonyl)benzamide]
EC50 (FL5.12/Bcl-2 cells): 460 nM
Ki (GST-Bcl-2): 6.23 nM
EC50 (Canine platelets): > 50000 nM
Ki (GST-Bcl-XL): > 660 nM

CN1CCC(Nc2ccc(S(=O)(=O)NC(=O)c3ccc(N4CCN(CC5=C(c6ccc(Cl)cc6)CC(C)(C)OC5)CC4)cc3Oc3cccc4[nH]ccc34)cc2[N+](=O)[O-])CC1 [Example 145, 4-(4-{[4-(4-chlorophenyl)-6,6-dimethyl-5,6-dihydro-2H-pyran-3-yl]methyl}piperazin-1-yl)-2-(1H-indol-4-yloxy)-N-({4-[(1-methylpiperidin-4-yl)amino]-3-nitrophenyl}sulfonyl)benzamide]
EC50 (FL5.12/Bcl-2 cells): 4 nM
Ki (GST-Bcl-2): 0.03 nM
EC50 (Canine platelets): 3210 nM
Ki (GST-Bcl-XL): 12 nM

CN(C)CCOc1cccc(-c2ccc(Cl)cc2)c1CN1CCN(c2ccc(C(=O)NS(=O)(=O)c3ccc(NCC4CCOCC4)c([N+](=O)[O-])c3)c(Oc3ccc4[nH]ccc4c3)c2)CC1 [Example 129, 4-[4-({4′-chloro-3-[2-(dimethylamino)ethoxy]-1,1′-biphenyl-2-yl}methyl)piperazin-1-yl]-2-(1H-indol-5-yloxy)-N-({3-nitro-4-[(tetrahydro-2H-pyran-4-ylmethyl)amino]phenyl}sulfonyl)benzamide]
EC50 (FL5.12/Bcl-2 cells): 21 nM
EC50 (Canine platelets): > 50000 nM

CN1CCC(Nc2ccc(S(=O)(=O)NC(=O)c3ccc(N4CCN(CC5=C(c6ccc(Cl)cc6)CC(C)(C)CC5)CC4)cc3Oc3ccc4[nH]ccc4c3)cc2[N+](=O)[O-])CC1 [Example 98, 4-(4-{[2-(4-chlorophenyl)-4,4-dimethylcyclohex-1-en-1-yl]methyl}piperazin-1-yl)-2-(1H-indol-5-yloxy)-N-({4-[(1-methylpiperidin-4-yl)amino]-3-nitrophenyl}sulfonyl)benzamide]
EC50 (FL5.12/Bcl-2 cells): 4 nM
EC50 (Canine platelets): 17900 nM
Ki (GST-Bcl-XL): > 660 nM

CN(C)CCCOc1ccc(S(=O)(=O)NC(=O)c2ccc(N3CCN(CC4=C(c5ccc(Cl)cc5)CC(C)(C)CC4)CC3)cc2Oc2cccc3[nH]ccc23)cc1[N+](=O)[O-] [Example 106, 4-(4-{[2-(4-chlorophenyl)-4,4-dimethylcyclohex-1-en-1-yl]methyl}piperazin-1-yl)-N-({4-[3-(dimethylamino)propoxy]-3-nitrophenyl}sulfonyl)-2-(1H-indol-4-yloxy)benzamide]
EC50 (FL5.12/Bcl-2 cells): 9 nM
EC50 (Canine platelets): 15200 nM

CN1CCC(Nc2ccc(S(=O)(=O)NC(=O)c3ccc(N4CCN(CC5=C(c6ccc(Cl)cc6)CCC5)CC4)cc3Oc3cccc4[nH]ccc34)cc2[N+](=O)[O-])CC1 [Example 148, 4-(4-{[2-(4-chlorophenyl)cyclopent-1-en-1-yl]methyl}piperazin-1-yl)-2-(1H-indol-4-yloxy)-N-({4-[(1-methylpiperidin-4-yl)amino]-3-nitrophenyl}sulfonyl)benzamide]
Ki (GST-Bcl-2): 2.89 nM
EC50 (Canine platelets): 19800 nM
Ki (GST-Bcl-XL): > 660 nM

CN1CCC(Nc2ccc(S(=O)(=O)NC(=O)c3ccc(N4CCN(CC5=C(c6ccc(Cl)cc6)CC(C)(C)CC5)CC4)cc3Oc3ccc4[nH]ccc4c3)cc2S(=O)(=O)C(F)(F)F)CC1 [Example 76, 4-(4-{[2-(4-chlorophenyl)-4,4-dimethylcyclohex-1-en-1-yl]methyl}piperazin-1-yl)-2-(1H-indol-5-yloxy)-N-({4-[(1-methylpiperidin-4-yl)amino]-3-[(trifluoromethyl)sulfonyl]phenyl}sulfonyl)benzamide]
EC50 (FL5.12/Bcl-2 cells): 39 nM
EC50 (Canine platelets): 8660 nM
Ki (GST-Bcl-XL): 3.29 nM

CC1(C)CCC(CN2CCN(c3ccc(C(=O)NS(=O)(=O)c4ccc(OCC5(C)COC5)c([N+](=O)[O-])c4)c(Oc4ccc5[nH]ccc5c4)c3)CC2)=C(c2ccc(Cl)cc2)C1 [Example 286, 4-(4-{[2-(4-chlorophenyl)-4,4-dimethylcyclohex-1-en-1-yl]methyl}piperazin-1-yl)-2-(1H-indol-5-yloxy)-N-({4-[(3-methyloxetan-3-yl)methoxy]-3-nitrophenyl}sulfonyl)benzamide]
EC50 (FL5.12/Bcl-2 cells): 279 nM
Ki (GST-Bcl-2): 0.567 nM
Ki (GST-Bcl-XL): > 660 nM

CC1(C)CCC(CN2CCN(c3ccc(C(=O)NS(=O)(=O)c4cnc(OCC5CCOCC5)c(Cl)c4)c(Oc4cccc5[nH]ccc45)c3)CC2)=C(c2ccc(Cl)cc2)C1 [Example 387, 4-(4-{[2-(4-chlorophenyl)-4,4-dimethylcyclohex-1-en-1-yl]methyl}piperazin-1-yl)-N-{[5-chloro-6-(tetrahydro-2H-pyran-4-ylmethoxy)pyridin-3-yl]sulfonyl}-2-(1H-indol-4-yloxy)benzamide]
EC50 (FL5.12/Bcl-2 cells): 86.5 nM
Ki (GST-Bcl-2): 0.162 nM
Ki (GST-Bcl-XL): 280 nM

CN(C)CCCc1cccc(-c2ccc(Cl)cc2)c1CN1CCN(c2ccc(C(=O)NS(=O)(=O)c3ccc(NCC4CCOCC4)c([N+](=O)[O-])c3)c(Oc3cccc4[nH]ccc34)c2)CC1 [Example 196, 4-[4-({4′-chloro-3-[3-(dimethylamino)propyl]-1,1′-biphenyl-2-yl}methyl)piperazin-1-yl]-2-(1H-indol-4-yloxy)-N-({3-nitro-4-[(tetrahydro-2H-pyran-4-ylmethyl)amino]phenyl}sulfonyl)benzamide]
EC50 (FL5.12/Bcl-2 cells): 12.4 nM
Ki (GST-Bcl-2): 0.032 nM
Ki (GST-Bcl-XL): > 660 nM

CC1(C)CCC(CN2CCN(c3ccc(C(=O)NS(=O)(=O)c4ccc(NN5CCOCC5)c([N+](=O)[O-])c4)c(Oc4ccc5[nH]ccc5c4)c3)CC2)=C(c2ccc(Cl)cc2)C1 [Example 260, 4-(4-{[2-(4-chlorophenyl)-4,4-dimethylcyclohex-1-en-1-yl]methyl}piperazin-1-yl)-2-(1H-indol-5-yloxy)-N-{[4-(morpholin-4-ylamino)-3-nitrophenyl]sulfonyl}benzamide]
EC50 (FL5.12/Bcl-2 cells): 59.4 nM
Ki (GST-Bcl-2): 1.09 nM
Ki (GST-Bcl-XL): > 660 nM

CN(C)CCOc1cccc(-c2ccc(Cl)cc2)c1CN1CCN(c2ccc(C(=O)NS(=O)(=O)c3ccc(NC4CCN(C)CC4)c([N+](=O)[O-])c3)c(Oc3cccc4[nH]ccc34)c2)CC1 [Example 205, 4-[4-({4′-chloro-3-[2-(dimethylamino)ethoxy]-1,1′-biphenyl-2-yl}methyl)piperazin-1-yl]-2-(1H-indol-4-yloxy)-N-({4-[(1-methylpiperidin-4-yl)amino]-3-nitrophenyl}sulfonyl)benzamide]
EC50 (FL5.12/Bcl-2 cells): 37.5 nM
Ki (GST-Bcl-2): 0.005 nM
Ki (GST-Bcl-XL): 3.57 nM

CC1(C)CCC(CN2CCN(c3ccc(C(=O)NS(=O)(=O)c4ccc(OCC5CCOCC5)c(C(N)=O)c4)c(Oc4ccc5[nH]ccc5c4)c3)CC2)=C(c2ccc(Cl)cc2)C1 [Example 357, N-{[3-(aminocarbonyl)-4-(tetrahydro-2H-pyran-4-ylmethoxy)phenyl]sulfonyl}-4-(4-{[2-(4-chlorophenyl)-4,4-dimethylcyclohex-1-en-1-yl]methyl}piperazin-1-yl)-2-(1H-indol-5-yloxy)benzamide]
EC50 (FL5.12/Bcl-2 cells): > 500 nM
Ki (GST-Bcl-2): 1.34 nM
Ki (GST-Bcl-XL): > 660 nM

CC1(C)CCC(CN2CCN(c3ccc(C(=O)NS(=O)(=O)c4ccc(NC5CCN(C6CCOCC6)CC5)c([N+](=O)[O-])c4)c(Oc4cccnc4)c3)CC2)=C(c2ccc(Cl)cc2)C1 [Example 398, 4-(4-{[2-(4-chlorophenyl)-4,4-dimethylcyclohex-1-en-1-yl]methyl}piperazin-1-yl)-N-({3-nitro-4-[(1-tetrahydro-2H-pyran-4-ylpiperidin-4-yl)amino]phenyl}sulfonyl)-2-(pyridin-3-yloxy)benzamide]
EC50 (FL5.12/Bcl-2 cells): 334 nM
Ki (GST-Bcl-2): 1.23 nM
Binding selectivity ratio (Bcl-XL Ki/Bcl-2 Ki) (GST-Bcl-2; ratio of TR-FRET Ki values, Bcl-XL over Bcl-2): 67.7
Ki (GST-Bcl-XL): 83.4 nM

CC1(C)CCC(CN2CCN(c3ccc(C(=O)NS(=O)(=O)c4ccc(NCCCS(C)(=O)=O)c([N+](=O)[O-])c4)c(Oc4cccc5[nH]ccc45)c3)CC2)=C(c2ccc(Cl)cc2)C1 [Example 294, 4-(4-{[2-(4-chlorophenyl)-4,4-dimethylcyclohex-1-en-1-yl]methyl}piperazin-1-yl)-2-(1H-indol-4-yloxy)-N-[(4-{[3-(methylsulfonyl)propyl]amino}-3-nitrophenyl)sulfonyl]benzamide]
EC50 (FL5.12/Bcl-2 cells): 59.8 nM
Ki (GST-Bcl-2): 0.258 nM
Ki (GST-Bcl-XL): 65.1 nM

CN(C)C1CCC(Nc2ccc(S(=O)(=O)NC(=O)c3ccc(N4CCN(CC5=C(c6ccc(Cl)cc6)CC(C)(C)CC5)CC4)cc3Oc3cccc4[nH]ccc34)cc2[N+](=O)[O-])CC1 (stereo not shown) [Example 202, 4-(4-{[2-(4-chlorophenyl)-4,4-dimethylcyclohex-1-en-1-yl]methyl}piperazin-1-yl)-N-[(4-{[4-(dimethylamino)cyclohexyl]amino}-3-nitrophenyl)sulfonyl]-2-(1H-indol-4-yloxy)benzamide]
EC50 (FL5.12/Bcl-2 cells): 13.8 nM
Ki (GST-Bcl-2): 0.052 nM
Ki (GST-Bcl-XL): 5.07 nM
